Experimental data taken from ChEMBL document CHEMBL1201862, “PubChem BioAssay data set” (2004).
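Test compounds were applied to cells in 96-well plates for 48 hours at 5 doses. GI50 marks 50% less growth.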 Active and inactive are the calls of the source. No stated cut-off is given here; in the data, active = GI50 up to about 1.1 µM and inactive = higher. Starred links: 1 amine or outer side, 2 acyl side, 3 side chain; linkers in the order of their positions; H or OH if unused. Positions of bridges follow the written chain, without caps; N, C: chain ends. Non-standard residues stand in square brackets, D forms with d. Residues, ends and D or L forms follow the SMILES beside them. Chains are numbered I, II in the order given. ξ: configuration not given here. X42 = N=C(N)NCCC[C@H](NC(=N)CCCCCCC(=N)N[C@@H](CCCNC(=N)N)C(=O)[*:2])C(=O)[*:1]; Oic(3aξ,7aξ) = O=C(O)[C@@H]1CC2CCCCC2N1; Igl = N[C@H](C(=O)O)C1Cc2ccccc2C1; Hyp = O=C(O)[C@@H]1C[C@@H](O)CN1

Tests used:
Assay in all cases: growth of human tumour cells (NCI), 48 h
MDA-MB-231 = tested on: MDA-MB-231
OVCAR-3 = tested on: OVCAR-3
MDA-N = tested on: MDA-N
OVCAR-8 = tested on: OVCAR-8
SR = tested on: SR
KM12 = tested on: KM12
ACHN = tested on: ACHN
786-0 = tested on: 786-0
HOP-62 = tested on: HOP-62
NCI-H460 = tested on: NCI-H460
HL-60 = tested on: HL-60
SK-MEL-2 = tested on: SK-MEL-2
NCI/ADR-RES = tested on: NCI/ADR-RES
HCT-15 = tested on: HCT-15
UO-31 = tested on: UO-31
K562 = tested on: K562
NCI-H226 = tested on: NCI-H226
MOLT-4 = tested on: MOLT-4

Compound | GI50 (MDA-MB-231) | GI50 (OVCAR-3) | GI50 (MDA-N) | GI50 (OVCAR-8) | GI50 (SR) | GI50 (KM12) | GI50 (ACHN) | GI50 (786-0) | GI50 (HOP-62) | GI50 (NCI-H460) | GI50 (HL-60) | GI50 (SK-MEL-2) | GI50 (NCI/ADR-RES) | GI50 (HCT-15) [µM] | GI50 (UO-31) | GI50 (K562) | GI50 (NCI-H226) | GI50 (MOLT-4)
Cc1cc2c(SCc3ccccc3Cl)nc(N)nc2nc1C | > 100 µM (inactive) | > 100 µM (inactive) | > 100 µM (inactive) | > 100 µM (inactive) | > 100 µM (inactive) | > 100 µM (inactive) | > 100 µM (inactive) | > 100 µM (inactive) | > 100 µM (inactive) | > 100 µM (inactive) | > 100 µM (inactive) | > 100 µM (inactive) | > 100 µM (inactive) | > 100 | 1.79 µM (inactive) | – | – | –
Nc1nc(-c2cccs2)cs1 | 60.4 µM (inactive) | > 100 µM (inactive) | 45.7 µM (inactive) | 58.7 µM (inactive) | 69.5 µM (inactive) | 81.7 µM (inactive) | 98.6 µM (inactive) | > 100 µM (inactive) | > 100 µM (inactive) | 47.9 µM (inactive) | > 100 µM (inactive) | > 100 µM (inactive) | 91 µM (inactive) | 83.4 | 54.6 µM (inactive) | > 100 µM (inactive) | – | –
O=[N+]([O-])c1ccc(C2c3c(O)nc(S)nc3Oc3nc(S)nc(O)c32)cc1 | > 100 µM (inactive) | > 100 µM (inactive) | > 100 µM (inactive) | > 100 µM (inactive) | – | > 100 µM (inactive) | > 100 µM (inactive) | > 100 µM (inactive) | > 100 µM (inactive) | > 100 µM (inactive) | > 100 µM (inactive) | > 100 µM (inactive) | > 100 µM (inactive) | > 100 | > 100 µM (inactive) | > 100 µM (inactive) | > 100 µM (inactive) | > 100 µM (inactive)
O=C1N/C(=N/N=C/c2ccccc2)N/C1=C\c1c[nH]c2ccccc12 | 42.9 µM (inactive) | 49.7 µM (inactive) | > 100 µM (inactive) | 38.2 µM (inactive) | – | 65 µM (inactive) | > 100 µM (inactive) | 41.5 µM (inactive) | 61.4 µM (inactive) | 61 µM (inactive) | 67.3 µM (inactive) | > 100 µM (inactive) | > 100 µM (inactive) | > 100 | 71.6 µM (inactive) | 47.1 µM (inactive) | 72.6 µM (inactive) | 25.1 µM (inactive)
COc1cc2c(cc1O)C(=O)O[C@@H]1CC=C3CCN(C)[C@H]3[C@H]21 | > 25 µM (inactive) | > 25 µM (inactive) | > 25 µM (inactive) | > 25 µM (inactive) | > 25 µM (inactive) | > 25 µM (inactive) | > 25 µM (inactive) | > 25 µM (inactive) | > 25 µM (inactive) | – | – | > 25 µM (inactive) | > 25 µM (inactive) | > 25 | > 25 µM (inactive) | > 25 µM (inactive) | > 25 µM (inactive) | > 25 µM (inactive)
CNCCCNC(=S)Cn1cc(C)c(=O)[nH]c1=O | > 60.4 µM (inactive) | > 48.9 µM (inactive) | > 100 µM (inactive) | > 26.6 µM (inactive) | > 32.9 µM (inactive) | > 48.1 µM (inactive) | > 49.2 µM (inactive) | > 44.3 µM (inactive) | > 54.3 µM (inactive) | > 43 µM (inactive) | – | > 45.2 µM (inactive) | > 57.8 µM (inactive) | > 42.7 | > 48 µM (inactive) | > 42.2 µM (inactive) | > 59 µM (inactive) | > 35.2 µM (inactive)
Cc1cc(C)c(C2CC(O)C(CO)O2)cc1C (stereo not given) | > 100 µM (inactive) | > 100 µM (inactive) | > 100 µM (inactive) | > 100 µM (inactive) | > 100 µM (inactive) | > 100 µM (inactive) | > 100 µM (inactive) | > 100 µM (inactive) | > 100 µM (inactive) | > 100 µM (inactive) | – | > 100 µM (inactive) | 67.5 µM (inactive) | > 100 | > 100 µM (inactive) | > 100 µM (inactive) | > 100 µM (inactive) | > 100 µM (inactive)
c1ccc(-c2nc3ccccc3n3c(CN4CCCCC4)nnc23)cc1 | 60 µM (inactive) | > 100 µM (inactive) | > 100 µM (inactive) | 99.3 µM (inactive) | > 100 µM (inactive) | – | 28.7 µM (inactive) | 37.3 µM (inactive) | 28.5 µM (inactive) | > 100 µM (inactive) | – | 35.1 µM (inactive) | > 100 µM (inactive) | > 100 | – | > 100 µM (inactive) | > 100 µM (inactive) | > 100 µM (inactive)
Cc1ccccc1NC(=O)/C(C#N)=N\Nc1[nH]cnc1C(N)=O | 7.46 µM (inactive) | 2.42 µM (inactive) | 12.9 µM (inactive) | 1.51 µM (inactive) | – | 28.6 µM (inactive) | 5.28 µM (inactive) | 19.3 µM (inactive) | 6.12 µM (inactive) | 9.33 µM (inactive) | > 100 µM (inactive) | 1.18 µM (inactive) | 2.45 µM (inactive) | 19.3 | 1.62 µM (inactive) | 1.89 µM (inactive) | 41.4 µM (inactive) | 2.88 µM (inactive)
COc1ccc(/N=C2/C(=N/c3ccc(OC)cc3)N(c3ccccc3)C(=S)N2N=C=C2Sc3ccccc3N2C)cc1 | 25.5 µM (inactive) | > 100 µM (inactive) | > 100 µM (inactive) | > 100 µM (inactive) | > 100 µM (inactive) | > 100 µM (inactive) | > 100 µM (inactive) | > 100 µM (inactive) | 52.5 µM (inactive) | > 100 µM (inactive) | – | > 100 µM (inactive) | > 100 µM (inactive) | > 100 | > 100 µM (inactive) | > 100 µM (inactive) | > 100 µM (inactive) | > 100 µM (inactive)
N=C(N)NCCC[C@H](NC(=O)[C@@H]1CC2CCCCC2N1C(=O)[C@@H](NC(=O)[C@H](CO)NC(=O)[C@@H](NC(=O)CNC(=O)[C@@H]1CCCN1C(=O)[C@H](CCCNC(=N)N)NC(=O)[C@H](CCCNC(=N)N)NC(=N)CCCCCCC(=N)N[C@@H](CCCNC(=N)N)C(=O)N[C@@H](CCCNC(=N)N)C(=O)N1CCC[C@H]1C(=O)N1C[C@H](O)C[C@H]1C(=O)NCC(=O)N[C@H](C(=O)N[C@@H](CO)C(=O)N[C@H](C(=O)N1C2CCCCC2C[C@H]1C(=O)N[C@@H](CCCNC(=N)N)C(=O)O)C1Cc2ccccc2C1)C1Cc2ccccc2C1)C1Cc2ccccc2C1)C1Cc2ccccc2C1)C(=O)O (stereo not given in full) (I: RP[Hyp]G[Igl]S[Igl][Oic(3aξ,7aξ)]R-OH / II: RPG[Igl]S[Igl][Oic(3aξ,7aξ)]R-OH; linker I:N-II:N via X42) | 1.69 µM (inactive) | 1.79 µM (inactive) | 2.08 µM (inactive) | – | 0.169 µM (active) | 2.07 µM (inactive) | 1.91 µM (inactive) | 2.99 µM (inactive) | 2.23 µM (inactive) | 1.91 µM (inactive) | 0.15 µM (active) | 2.33 µM (inactive) | 2.9 µM (inactive) | 2.22 | 5.43 µM (inactive) | 0.993 µM (active) | – | 0.413 µM (active)
